Test results: US6235777A, “Benzenesulfonamide compounds” (Ono Pharmaceutical Co., Ltd., priority 1997, dated 2001)

Assays:
[1] = target: T1, mouse EP1 (Mus musculus, UniProt P35375); assay: Binding assay using expression cell of prostanoid receptor subtype (EP1; competition of specific 3H-PGE2 binding to CHO cell membrane fraction); settings: Table 1, 3H-PGE2 2.5 nM, 1 hour, room temperature, pH6.0, read-out: dissociation constant to receptor subtype, Ki (EP1), present invention compounds
T1 construct: expressed in transfected cells; host or cells: CHO
T1 sequence (P35375 1-405): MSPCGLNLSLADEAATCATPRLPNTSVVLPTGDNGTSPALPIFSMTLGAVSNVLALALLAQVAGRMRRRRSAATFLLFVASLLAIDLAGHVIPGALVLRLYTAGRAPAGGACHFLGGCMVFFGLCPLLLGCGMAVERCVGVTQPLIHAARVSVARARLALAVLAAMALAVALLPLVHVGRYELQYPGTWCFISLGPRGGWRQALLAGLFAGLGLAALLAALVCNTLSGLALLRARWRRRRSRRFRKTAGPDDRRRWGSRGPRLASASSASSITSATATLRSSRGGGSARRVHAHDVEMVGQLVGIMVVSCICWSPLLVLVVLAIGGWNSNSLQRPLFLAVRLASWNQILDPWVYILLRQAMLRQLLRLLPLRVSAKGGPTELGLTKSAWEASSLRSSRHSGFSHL
Protocol: (§1) (i) Binding Assay Using Expression Cell of Prostanoid Receptor Subtype
(§2) The standard assay mixture contained membrane fraction (0.5 mg/ml), ^3 H-PGE2 in a final volume of 200 microliter was incubated for 1 hour at room temperature. The reaction was terminated by addition of 3 ml of ice-cold buffer. The mixture was rapidly filtered through a glass filter (GF/B). The radioactivity associated with the filter was measured by liquid scintillation counting.
(§3) Non-specific binding was calculated as the binding in the presence of an excess (2.5 microM) of unlabeled PGE2. […] The following buffer was used in all reaction. Buffer:potassium phosphate (pH6.0, 10 mM), EDTA (1 mM), MgCl2 (10 mM), NaCl (0.1M).
(§4) The dissociation constant Ki (microM) of each compound was calculated by the following equation.

[2] = target: T2, mouse EP3 (Mus musculus, UniProt P30557); assay: Binding assay using expression cell of prostanoid receptor subtype (EP3; competition of specific 3H-PGE2 binding to CHO cell membrane fraction); settings: Table 1, 3H-PGE2 2.5 nM, 1 hour, room temperature, pH6.0, read-out: dissociation constant to receptor subtype, Ki (EP3), present invention compounds
T2 construct: expressed in transfected cells; host or cells: CHO
T2 sequence (P30557 1-365): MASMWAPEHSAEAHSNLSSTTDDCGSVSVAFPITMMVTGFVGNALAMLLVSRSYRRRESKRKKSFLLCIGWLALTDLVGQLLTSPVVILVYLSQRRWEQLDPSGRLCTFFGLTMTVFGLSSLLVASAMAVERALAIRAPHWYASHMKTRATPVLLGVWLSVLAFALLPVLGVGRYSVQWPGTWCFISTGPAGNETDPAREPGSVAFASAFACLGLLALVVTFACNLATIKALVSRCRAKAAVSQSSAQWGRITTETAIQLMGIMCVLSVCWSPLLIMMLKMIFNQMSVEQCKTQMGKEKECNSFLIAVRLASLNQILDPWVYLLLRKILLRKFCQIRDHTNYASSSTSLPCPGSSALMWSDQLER
Protocol: as §1, §2, §3, §4

Structure (SMILES)	Ki [1]	Ki [2]
Cc1cc(Cl)ccc1S(=O)(=O)NC[C@H]1C2CCC(CC2)[C@@H]1/C=C\CCCC(=O)O [Example 2(c), 6-[(2S, 3S)-3-(4-chloro-2-methylphenylsulfonylaminomethyl)bicyclo[2.2. 2]octan-2-yl]-5Z-hexenoic acid]	1.8 nM	200 nM
Cc1cc(Cl)ccc1S(=O)(=O)NC[C@H]1C2CCC(CC2)[C@H]1/C=C/CCCC(=O)O [Example 2(n), 6-[(2S, 3S)-3-(4-chloro-2-methylphenylsulfonylaminomethyl)bicyclo[2.2. 2]-octan-2-yl]-5E-hexenoic acid]	5.1 nM	1900 nM
O=C(O)CCC/C=C\[C@@H]1C2CCC(CC2)[C@@H]1CNS(=O)(=O)c1ccc(Cl)cc1Cl [Example 2, 6-[(2S, 3S)-3-(2,4-dichlorophenylsulfonylaminomethyl)bicyclo[2.2. 2]octan-2-yl]-5Z-hexenoic acid]	0.5 nM	120 nM
Cc1cc(Cl)ccc1S(=O)(=O)NC[C@H]1CC=CC[C@@H]1/C=C\CCCC(=O)O [Example 4(b), 6-[(4R, 5S)-5-(4-chloro-2-methylphenylsulfonylaminomethyl)cyclohexen-4-yl]-5Z-hexenoic acid]	17 nM	52 nM
O=C(O)CCC/C=C\[C@H]1CC=CC[C@@H]1CNS(=O)(=O)c1ccc(Cl)cc1F [Example 4(c), 6-[(4R, 5S)-5-(4-chloro-2-fluorophenylsulfonylaminomethyl)cyclohexen-4-yl]-5Z-hexenoic acid]	39 nM	180 nM
Cc1cc(Br)ccc1S(=O)(=O)NC[C@H]1CC=CC[C@@H]1/C=C\CCCC(=O)O [Example 4(f), 6-[(4R, 5S)-5-(4-bromo-2-methylphenylsulfonylaminomethyl)cyclohexen-4-yl]-5Z-hexenoic acid]	5.7 nM	12 nM
O=C(O)CCC/C=C\[C@@H]1[C@@H]2CC[C@@H](C2)[C@@H]1CNS(=O)(=O)c1ccc(Cl)cc1Cl [Example 5(a), 6-[(1R, 2S, 3S, 4S)-3-(2,4-dichlorophenylsulfonylaminomethyl)bicyclo[2.2. 1]-heptan-2-yl]-5Z-hexenoic acid]	12 nM	280 nM
O=C(O)CCC/C=C\[C@@H]1[C@@H]2CC[C@@H](C2)[C@@H]1CNS(=O)(=O)c1ccc(Cl)cc1F [Example 5(d), 6-[(1R, 2S, 3S, 4S)-3-(4-chloro-2-fluorophenylsulfonylaminomethyl)bicyclo[2.2. 1]heptan-2-yl]-5Z-hexenoic acid]	23 nM	1200 nM
Cc1cc(Cl)ccc1S(=O)(=O)NC[C@H]1[C@H]2CC[C@H](C2)[C@H]1/C=C\CCCC(=O)O [Example 5(e), 6-[(1R, 2S, 3S, 4S)-3-(4-chloro-2-methylphenylsulfonylaminomethyl)bicyclo[2.2. 1]heptan-2-yl]-5Z-hexenoic acid]	7.2 nM	200 nM
O=C(O)CCC/C=C\[C@@H]1[C@@H](CNS(=O)(=O)c2ccc(Cl)cc2Cl)[C@@H]2C=C[C@H]1CC2 [Example 6(a), 6-[(1S, 4R, 5S, 6S)-6-(2,4-dichlorophenylsulfonylaminomethyl)bicyclo[2.2. 2]-oct-2-en-5-yl]-5Z-hexenoic acid]	3.9 nM	370 nM
O=C(O)CCC/C=C\[C@@H]1[C@@H](CNS(=O)(=O)c2c(Cl)cc(Cl)cc2Cl)[C@H]2C=C[C@@H]1CC2 [Example 7(f), 6-[(1R, 4S, 5S, 6S)-6-(2,4,6-trichlorophenylsulfonylaminomethyl)bicyclo[2.2. 2]oct-2-en-5-yl]-5Z-hexenoic acid]	7.2 nM	1500 nM

The remaining molecules from weak to strong by Ki [1], led by results:

Ki [1]	Ki [2]	Structure (SMILES)
8.4 nM	110 nM	O=C(O)CCC/C=C\[C@H]1CCCC[C@@H]1CNS(=O)(=O)c1c(Cl)cc(Cl)cc1Cl [Example 3(e), 6-[(1R, 2S)-2-(2,4,6-trichlorophenylsulfonylaminomethyl)cyclohexyl]-5Z-hexenoic acid]
4.2 nM	1100 nM	Cc1cc(Cl)cc(C)c1S(=O)(=O)NC[C@@H]1[C@@H](/C=C\CCCC(=O)O)[C@H]2C=C[C@@H]1CC2 [Example 6(e), 6-[(1S, 4R, 5S, 6S)-6-(4-chloro-2,6-dimethylphenylsulfonylaminomethyl)bicyclo[2.2. 2]oct-2-en-5-yl]-5Z-hexenoic acid]
3.9 nM	1400 nM	O=C(O)CCC/C=C\[C@@H]1[C@@H](CNS(=O)(=O)c2ccc(Cl)cc2F)[C@H]2C=C[C@@H]1CC2 [Example 7(d), 6-[(1R, 4S, 5S, 6S)-6-(4-chloro-2-fluorophenylsulfonylaminomethyl)bicyclo[2.2. 2]oct-2-en-5-yl]-5Z-hexenoic acid]
3.4 nM	950 nM	O=C(O)CCC/C=C\[C@@H]1C2CCC(CC2)[C@@H]1CNS(=O)(=O)c1c(Cl)cc(Cl)cc1Cl [Example 2(g), 6-[(2S, 3S)-3-(2,4,6-trichlorophenylsulfonylaminomethyl)bicyclo[2.2. 2]octan-2-yl]-5Z-hexenoic acid]
3.1 nM	18 nM	O=C(O)CCC/C=C\[C@H]1CCCC[C@@H]1CNS(=O)(=O)c1ccc(Cl)cc1Cl [Example 3(a), 6-[(1R, 2S)-2-(2,4-dichlorophenylsulfonylaminomethyl)cyclohexyl]-5Z-hexenoic acid]
2.4 nM	1400 nM	Cc1cc(Cl)cc(Cl)c1S(=O)(=O)NC[C@H]1C2CCC(CC2)[C@H]1/C=C\CCCC(=O)O [Example 2(k), 6-[(2S, 3S)-3-(2,4-dichloro-6-methylphenylsulfonylaminomethyl)bicyclo[2.2. 2]octan-2-yl]-5Z-hexenoic acid]
1.4 nM	85 nM	Cc1cc(Br)ccc1S(=O)(=O)NC[C@H]1C2CCC(CC2)[C@H]1/C=C\CCCC(=O)O [Example 2(d), 6-[(2S, 3S)-3-(4-bromo-2-methylphenylsulfonylaminomethyl)bicyclo[2.2. 2]octan-2-yl]-5Z-hexenoic acid]
1.1 nM	41 nM	Cc1cc(Cl)ccc1S(=O)(=O)NC[C@H]1CCCC[C@@H]1/C=C\CCCC(=O)O [Example 3(f), 6-[(1R, 2S)-2-(4-chloro-2-methylphenylsulfonylaminomethyl)cyclohexyl]-5Z-hexenoic acid]
